Patent US20100249402A1, “NOVEL BENZAMIDINE DERIVATIVES, PROCESS FOR THE PREPARATION THEREOF AND PHARMACEUTICAL COMPOSITION FOR PREVENTING OR TREATING OSTEPOROSIS COMPRISING THE SAME” (DONG WHA PHARMACEUTICAL CO. LTD., priority 2007, published 2010)
Read-outs that look alike come from different tables or passages of the source.

What was measured:
HOS = experiment: Cytotoxicity test (MTT), HOS; type: cell-based; conditions: 10^−6 M, cultured for 72 hrs, in comparison with the control group
Method: (§1) The cytotoxic effect of the benzamidine derivative of the present invention was evaluated by carrying out the experiment described below.
(§2) The test substance was diluted in an appropriate solvent at a concentration of 10^−2 M. This substance was diluted in an appropriate culture medium for the cells used in the cytotoxicity test to a concentration of 10^−6M, and loaded into a 96-well plate in 100 μl per well. The cell lines to be used in the cytotoxicity test were plated on a 96-well plate in a dose of 1.0×10^4 cell/100 μl per well, and cultured for 72 hrs. 25 μl of MTT[3-(4,5-dimethyl-2-thiazolyl)-2,5-diphenyl-2H-tetrazolium bromide] dissolved in PBS (2 mg/mL) were added before 4 hrs of the end of culture. After completion of the reaction, the plates were centrifuged, the medium was discarded and 100 μl of DMSO was added to dissolve formazan. Finally, the absorbance of the developed plates was measured at 540 nm. The survival rates of the cells were expressed as % concentration values in comparison with the control group.

[1] = tested on: osteoclast differentiation; experiment: Inhibitory effects on osteoclast differentiation (bone marrow cell/osteoblast co-culture, TRAP staining); type: cell-based, mice; conditions: Mus musculus, Osteoclast, 168 h, read-out: Inhibition of osteoclast differentiation (%)
Method: The effect of the benzamidine derivative of the present invention on osteoclast formation and differentiation process was evaluated via co-culture with an osteoblast.
Tibia was aseptically ectomized from 6 to 8-week-old male ddY mice to harvest bone marrow cells by using a syringe (21G, Korea Green Cross). The bone marrow cells were suspended in 5 mL of an α-MEM medium (Gibco BRL Co., supplemented with sodium bicarbonate (2.0 g/L), streptomycin (100 mg/L) and penicillin ([…]), filtered and then sterilized). The harvested cells were centrifuged at 600×g for 5 minutes to collect the whole quantity. To remove the red blood cells in the bone marrow cells, 3 mL of Tris HCl (0.83% NH4Cl, pH 7.5) was added and well mixed. After centrifugation, the numbers of the eukaryotic cells in the harvested bone marrow cells were counted, and then immediately used for a co-culture system.
The progenitor bone and the parietal bone were aseptically ectomized from 1 to 2-day-old neonatal ICR mice, washed with a phosphate butter solution (PBS), and treated with a mixed enzyme solution (0.2% collagenase and 0.1% dispase) six to seven times (10, 10, 10, 20, 20 and 20 min), and then 3 to 6 groups of the cells, in which a large volume of cells having osteoblastic characteristics were contained, were intensively collected, and washed with medium (serum-free α-MEM). The washed cells were cultured in the α-MEM medium containing 10% FBS for 2 to 3 days. After sub-culturing, the collected cells were used for this experiment, and diluted to a concentration of 1×10^6 cells/mL for storage at −70° C.
The benzamidine derivative of the present invention was dissolved in a sterile distilled water or ethanol to be diluted to a desired concentration. The final volume of the sample added to the cell culture medium was set at a ratio of 1:1000.
The bone marrow cells prepared in the above 1-1 and the osteoblast were co-cultured. Both the bone marrow cells (25,000 cells/cm^2) and the osteoblast (10,000 cells/cm^2) were plated in a 96-well plate using α-MEM medium containing FBS, and then cultured with the samples to be tested for 7 days. Differentiation factors, such as dexamethasone (10^−7 M) and vitamin D (10^−8 M), were also co-added to the medium from the first day of cultivation. The medium was changed with a fresh media containing a mixture of the samples and the differentiation factors every 2 to 3 days.
TRAP was used as a marker to measure the matured osteoclast in consideration of its characteristics showing a positive reaction to a TRAP staining solution.
The TRAP staining solution was prepared in such the manner that 5 mg of naphthol AS-MS phosphate (sigma N-4875) as a substrate and 25 mg of a coloring agent (Fast Red Violet LB salt) were dissolved in N,N-dimethylformamide (about 0.5 mL). 50 ml of a 0.1 N […] buffer solution containing 50 mM tartaric acid (pH 5.0) was added thereto, and the mixture was stored in a refrigerator prior to use as a staining solution.
After culturing the cells for 7 days, the medium was removed from the wells, the cells were once washed with PBS, and then fixed with PBS containing 10% formalin for 2 to 5 min. The cells were fixed again in a mixed solution of ethanol and acetone (1/1) for about 1 min, and dried off. The cells were further treated by the TRAP staining solution for 15 minutes, and washed with water and dried off. The osteoclasts with 3 or more nuclei showing a TRAP-positive reaction were counted under a microscopic examination. Each of tests was confirmed at least three times. The inhibitory effect on osteoclast differentiation of each experimental group, relative to negative controls, was expressed as a percentage (%).

calvaria = experiment: Cytotoxicity test (MTT), calvaria; type: cell-based; conditions: 10^−6 M, cultured for 72 hrs, in comparison with the control group
Method: as §1, §2

MC3T3-E1 = experiment: Cytotoxicity test (MTT), MC3T3-E1; type: cell-based; conditions: 10^−6 M, cultured for 72 hrs, in comparison with the control group
Method: as §1, §2

[2] = 1 μm, 7 days co-culture, TRAP-positive osteoclasts with 3 or more nuclei, relative to negative controls

Row | Structure (SMILES) | Cell survival rate (HOS) [%] | inhibition at 1 µM [1, 2] [%] | Cell survival rate (calvaria) [%] | Cell survival rate (MC3T3-E1) [%] | inhibition at 1 µM [1] [%]
1 | CCN(C)c1nc(-c2ccc(OCCCCCOc3ccc(C(=N)NO)cc3)cc2)c(CN2CCOCC2)s1 [Example 26, N-hydroxy-4-(5-{4-[2-(ethyl-methyl-amino)-5-morpholin-4-ylmethyl-thiazol-4-yl]-phenoxy}-pentyloxy)-benzamidine] | 102 | 98 | 107 | 98 | –
2 | CN(CCN1CCOCC1)c1nc(-c2ccc(OCCCCCOc3ccc(C(=N)NO)cc3)cc2)c(CN2CCOCC2)s1 [Example 28, N-hydroxy-4-[5-(4-{2-[methyl-(2-morpholin-4-yl-ethyl)-amino]-5-morpholin-4-ylmethyl-thiazol-4-yl}-phenoxy)-pentyloxy]-benzamidine] | 114 | 100 | 104 | 11 | –
3 | CN(Cc1ccccc1)c1nc(-c2ccc(OCCCCCOc3ccc(C(=N)NO)cc3)cc2)c(CN2CCOCC2)s1 [Example 27, N-hydroxy-4-(5-{4-[2-(benzyl-methyl-amino)-5-morpholin-4-ylmethyl-thiazol-4-yl]-phenoxy}-pentyloxy)-benzamidine] | 104 | 77 | 106 | 102 | –
4 | Cc1nc(-c2ccc(OCCCCCOc3ccc(C(=N)NO)cc3)cc2)c(CNCC(C)C)s1 [Example 14, N-hydroxy-4-(5-{4-[5-(isobutylamino-methyl)-2-methyl-thiazol-4-yl]-phenoxy}-pentyloxy)-benzamidine] | 111 | – | 103 | 98 | 100
5 | Cc1nc(-c2ccc(OCCCCCOc3ccc(C(=N)NO)cc3)cc2)c(CN2CCCCC2)s1 [Example 11, N-hydroxy-4-{5-[4-(2-methyl-5-piperidin-1-ylmethyl-thiazol-4-yl)-phenoxy]-pentyloxy}-benzamidine] | 101.9 | 92.3 | 95.8 | 91.9 | –
6 | CN1CCN(Cc2sc(N(C)CCN3CCOCC3)nc2-c2ccc(OCCCCCOc3ccc(C(=N)NO)cc3)cc2)CC1 [Example 31, N-hydroxy-4-(5-{4-[2-[methyl-(2-morpholin-4-yl-ethyl)-amino]-5-(4-methyl-piperazin-1-ylmethyl)-thiazol-4-yl]-phenoxy}-pentyloxy)-benzamidine] | 101 | 88 | 102 | 110 | –
7 | N=C(NO)c1ccc(OCCCCCOc2ccc(-c3nc(N4CCOCC4)sc3CN3CCOCC3)cc2)cc1 [Example 51, N-hydroxy-4-{5-[4-(2-morpholin-4-yl-5-morpholin-4-ylmethyl-thiazol-4-yl)-phenoxy]-pentyloxy}-benzamidine] | 91 | 95 | 102 | 88 | –
8 | Cc1nc(-c2ccc(OCCCCCOc3ccc(C(=N)NO)cc3)cc2)c(CN2CCN(C)CC2)s1 [Example 9, N-hydroxy-4-(5-{4-[2-methyl-5-(4-methyl-piperazin-1-ylmethyl)-thiazol-4-yl]-phenoxy}-pentyloxy)-benzamidine] | 95 | – | 92.3 | 98.8 | 96.4
9 | N=C(NO)c1ccc(OCCCCCOc2ccc(-c3nc(N4CCCCC4)sc3N3CCOCC3)cc2)cc1 [Example 52, N-hydroxy-4-{5-[4-(5-morpholin-4-yl-2-piperidin-1-yl-thiazol-4-yl)-phenoxy]-pentyloxy}-benzamidine] | 97 | 91 | 97 | 94 | –
10 | Cc1nc(-c2ccc(OCCCCCOc3ccc(C(=N)NO)cc3)cc2)c(CN2CCOCC2)s1 [Example 8, N-hydroxy-4-{5-[4-(2-methyl-5-morpholin-4-ylmethyl-thiazol-4-yl)-phenoxy]-pentyloxy}-benzamidine] | 102.3 | 96.4 | 90.7 | 94.7 | –
